The values below are quoted from earlier work in patent publication US7361766B2, “Bicyclic heterocycles as cannabinoid receptor modulators” (Bristol-Myers Squibb Company, priority 2005, dated 2008).

The structures appear in SMILES notation. Read-outs that look alike come from different tables or passages of the source.

The conditions of series [1]: chronic administration for two weeks.
For series [2] the following is noted: human subjects, 16 week trial period.
Series [3] deals with CB-1. To be noted: multiple species including humans.

As for `Cc1c(C(=O)NN2CCCCC2)nn(-c2ccc(Cl)cc2Cl)c1-c1ccc(I)cc1` [AM-251], the body weight result in series [1] is “substantial body weight reduction”. In the case of `Cc1c(C(=O)NN2CCCCC2)nn(-c2ccc(Cl)cc2Cl)c1-c1ccc(Cl)cc1` [SR-141716], in series [2], the body weight result was “dose-dependently reduced body weight”.

In the case of `CCCCC/C=C\C/C=C\C/C=C\C/C=C\CCCC(=O)NCCO` [anandamide], in series [3], the body weight entry was “weight gain” and the food intake entry is “increased food intake”. As for `CCCCCc1cc(O)c2c(c1)OC(C)(C)[C@@H]1CCC(C)=C[C@@H]21` [Delta-9 THC, Delta-9-tetrahydrocannabinol], in series [3], the body weight result is listed as “weight gain” and the food intake result was “increased food intake”.
